Reference: ChEMBL document CHEMBL1201862, “PubChem BioAssay data set” (2004)
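Results reflect a 48-hour exposure of cells in 96-well plates to compound at five concentrations. GI50 = concentration required for 50% inhibition of growth.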 Activity calls are given as the source filed them. Cut-off read from the data, not from the text of the source: active = GI50 up to about 1.1 µM and inactive = higher.

Key:
Test in all cases: NCI-60 cell line screen, 48 h
[1] = tested on: HCC 2998
[2] = tested on: SK-MEL-28
[3] = tested on: UACC-257
[4] = tested on: ACHN
[5] = tested on: SF-295
[6] = tested on: NCI-H23
[7] = tested on: NCI-H522
[8] = tested on: RXF 393
[9] = tested on: OVCAR-8
[10] = tested on: RPMI-8226
[11] = tested on: A549
[12] = tested on: TK-10
[13] = tested on: SF-539
[14] = tested on: KM12
[15] = tested on: IGROV-1
[16] = tested on: CCRF-CEM
[17] = tested on: EKVX
[18] = tested on: NCI-H226
[19] = tested on: SR
[20] = tested on: SK-OV-3
[21] = tested on: HT-29
[22] = tested on: UO-31
[23] = tested on: HCT-15
[24] = tested on: HOP-92
[25] = tested on: SK-MEL-2
[26] = tested on: XF498
[27] = tested on: SNB-19
[28] = tested on: SK-MEL-5
[29] = tested on: DLD-1
[30] = tested on: K562
[31] = tested on: M14
[32] = tested on: SN12C
[33] = tested on: 786-0
[34] = tested on: HL-60
[35] = tested on: SF-268
[36] = tested on: OVCAR-5
[37] = tested on: U-251
[38] = tested on: MOLT-4
[39] = tested on: Malme-3M
[40] = tested on: SW-620
[41] = tested on: OVCAR-3
[42] = tested on: HOP-18
[43] = tested on: LXFL 529
[44] = tested on: NCI-H460
[45] = tested on: M19-MEL
[46] = tested on: KM-20L2
[47] = tested on: DMS-273
[48] = tested on: HOP-62
[49] = tested on: UACC-62
[50] = tested on: HCT-116
[51] = tested on: LOX IMVI
[52] = tested on: SNB-75
[53] = tested on: SNB-78
[54] = tested on: COLO 205
[55] = tested on: A498
[56] = tested on: OVCAR-4

O=C(O)Cc1cc(=O)[nH]c2c1/C(=N/O)CCC2
GI50 [1]: > 100 µM (inactive) | GI50 [2]: > 100 µM (inactive) | GI50 [3]: > 100 µM (inactive) | GI50 [4]: > 100 µM (inactive) | GI50 [5]: > 100 µM (inactive) | GI50 [6]: > 100 µM (inactive) | GI50 [7]: > 100 µM (inactive) | GI50 [8]: > 100 µM (inactive) | GI50 [9]: > 100 µM (inactive) | GI50 [10]: > 100 µM (inactive) | GI50 [11]: > 100 µM (inactive) | GI50 [12]: > 100 µM (inactive) | GI50 [13]: > 100 µM (inactive) | GI50 [14]: > 100 µM (inactive) | GI50 [15]: > 100 µM (inactive) | GI50 [16]: > 100 µM (inactive) | GI50 [17]: > 100 µM (inactive) | GI50 [18]: > 100 µM (inactive) | GI50 [19]: > 100 µM (inactive) | GI50 [20]: > 100 µM (inactive) | GI50 [21]: > 100 µM (inactive) | GI50 [22]: > 100 µM (inactive) | GI50 [23]: > 100 µM | GI50 [24]: > 100 µM (inactive) | GI50 [25]: > 100 µM (inactive) | GI50 [26]: > 100 µM (inactive) | GI50 [27]: > 100 µM (inactive) | GI50 [28]: > 100 µM (inactive) | GI50 [29]: > 100 µM (inactive) | GI50 [30]: > 100 µM (inactive) | GI50 [31]: > 100 µM (inactive) | GI50 [32]: > 100 µM (inactive) | GI50 [33]: > 100 µM (inactive) | GI50 [34]: > 100 µM (inactive) | GI50 [35]: > 100 µM (inactive) | GI50 [36]: > 100 µM (inactive) | GI50 [37]: > 100 µM (inactive) | GI50 [38]: > 100 µM (inactive) | GI50 [39]: > 100 µM (inactive) | GI50 [40]: > 100 µM (inactive) | GI50 [41]: > 100 µM (inactive) | GI50 [42]: > 100 µM (inactive) | GI50 [43]: > 100 µM (inactive) | GI50 [44]: > 100 µM (inactive)

CN1N=C2NCCNC3=NN(C)/C(=N/CC/N=C/1S2)S3
GI50 [45]: > 100 µM (inactive) | GI50 [46]: > 100 µM (inactive) | GI50 [2]: > 100 µM (inactive) | GI50 [3]: > 100 µM (inactive) | GI50 [47]: > 100 µM (inactive) | GI50 [4]: > 100 µM (inactive) | GI50 [5]: > 100 µM (inactive) | GI50 [48]: > 100 µM (inactive) | GI50 [6]: > 100 µM (inactive) | GI50 [7]: > 100 µM (inactive) | GI50 [8]: > 100 µM (inactive) | GI50 [9]: > 100 µM (inactive) | GI50 [10]: > 100 µM (inactive) | GI50 [49]: > 100 µM (inactive) | GI50 [11]: > 100 µM (inactive) | GI50 [13]: > 100 µM (inactive) | GI50 [50]: > 100 µM (inactive) | GI50 [14]: > 100 µM (inactive) | GI50 [51]: > 100 µM (inactive) | GI50 [15]: > 100 µM (inactive) | GI50 [16]: > 100 µM (inactive) | GI50 [17]: > 100 µM (inactive) | GI50 [18]: > 100 µM (inactive) | GI50 [19]: > 100 µM (inactive) | GI50 [52]: > 100 µM (inactive) | GI50 [21]: > 100 µM (inactive) | GI50 [23]: > 100 µM | GI50 [24]: > 100 µM (inactive) | GI50 [27]: > 100 µM (inactive) | GI50 [28]: > 100 µM (inactive) | GI50 [29]: > 100 µM (inactive) | GI50 [30]: > 100 µM (inactive) | GI50 [31]: > 100 µM (inactive) | GI50 [32]: > 100 µM (inactive) | GI50 [33]: > 100 µM (inactive) | GI50 [34]: > 100 µM (inactive) | GI50 [53]: > 100 µM (inactive) | GI50 [35]: > 100 µM (inactive) | GI50 [36]: > 100 µM (inactive) | GI50 [54]: > 100 µM (inactive) | GI50 [37]: > 100 µM (inactive) | GI50 [38]: > 100 µM (inactive) | GI50 [40]: > 100 µM (inactive) | GI50 [42]: > 100 µM (inactive) | GI50 [55]: > 100 µM (inactive) | GI50 [43]: > 100 µM (inactive) | GI50 [56]: > 100 µM (inactive) | GI50 [44]: > 100 µM (inactive)
